Test results reported in US8349880B2, “Bicyclic compounds for the reduction of beta-amyloid production” (Bristol-Myers Squibb Company, priority 2009, dated 2013).

tested on: Aβ1-42 production; assay: Cellular assay for inhibition of Aβ1-42 production (H4 APP751 SWE clone 8.20); format: cell-based; conditions: 19 h, H4 APP751 SWE clone 8.20 cells, 19 h incubation; read-out: Activity Rating (Aβ42 cellular IC50, given as a number)
Procedure: Cellular assays for inhibition of Aβ1-40 and Aβ1-42 production
H4 cells stably transfected with APP751 containing the Swedish mutation (H4 APP751 SWE clone 8.20, developed at BMS) were maintained in log phase through twice weekly passage at a 1:20 split. For IC50 determinations, 30 μl cells (1.5×10^4 cells/well) in DMEM media containing 0.0125% BSA (Sigma A8412) were plated directly into 384-well compound plates (Costar 3709) containing 0.1 μl serially diluted compound in DMSO. Following incubation for 19 h in 5% CO2 at 37° C., plates were briefly centrifuged (1000 rpm, 5 min). A 10 μl aliquot from each well was transferred to a second assay plate (Costar 3709) for Aβ40 measurements. Antibody cocktails were freshly prepared by dilution into 40 mM Tris-HCl (pH 7.4) with 0.2% BSA and added to assay plates. For Aβ42 measurements, antibodies specific for the Aβ42 neoepitope (565, developed at BMS; conjugated to the Wallac reagent (Perkin Elmer)) and the N-terminal sequence of Aβ peptide (26D6, developed at SIBIA; conjugated to APC (Perkin Elmer)) were mixed and 20 μl of the mixture was added to each well of the incubated cell plate yielding a final concentration of 0.8 ng/well 565 and 75 ng/well 26D6. For the Aβ40 measurements, antibodies specific for the Aβ40 neoepitope (TSD, developed at BMS; conjugated to the Wallac reagent (Perkin Elmer)) and 26D6 as described above were mixed and 20 μl of the mixture was added to the 10 μl aliquots which had been removed previously from the cell plate yielding a final concentration of 1.6 ng/well TSD and 17.5 ng/well 26D6. Assay plates containing antibodies were sealed with aluminum foil and incubated overnight at 4° C. Signal was determined using a Viewlux counter (Perkin Elmer) and IC50 values determined using curve fitting in CurveMaster (Excel Fit based).

| Molecule | IC50 [µM] |
| --- | --- |
| COc1cc(Nc2nc3n(n2)C[C@H](O)[C@H](O)CC3c2ccc(F)cc2)ccc1-n1cnc(Cl)c1 (relative stereo) [Example 63, rel-(6S,7R,9R)-2-(4-(4-chloro-1H-imidazol-1-yl)-3-methoxyphenylamino)-9-(4-fluorophenyl)-6,7,8,9-tetrahydro-5H-[1,2,4]triazolo azepine-6,7-diol 2,2,2-trifluoroacetate] | 0.14 |
| COc1cc(Nc2nc3n(n2)CC=CCC3(C)C)ccc1-n1cnc(Cl)c1 [Example 9, (Z)—N-(4-(4-chloro-1H-imidazol-1-yl)-3-methoxyphenyl)-9,9-dimethyl-8,9-dihydro-5H-[1,2,4]triazolo[1,5-a]azepin-2-amine 2,2,2-trifluoroacetate] | 0.11 |
| COc1cc(Nc2nc3n(n2)CCCC[C@H]3c2cc(F)c(F)c(F)c2)ccc1-n1cnc(Cl)c1 (single isomer, unassigned) [Example 51] | 0.004 |

Next, values leading:

| IC50 [µM] | Molecule |
| --- | --- |
| 0.07 | COc1cc(Nc2nc3n(n2)CCC(N(C)C)CC3c2ccc(F)cc2)ccc1-n1cnc(Cl)c1 (stereo not shown) [Example 141, N2-(4-(4-chloro-1H-imidazol-1-yl)-3-methoxyphenyl)-9-(4-fluorophenyl)-N7,N7-dimethyl-6,7,8,9-tetrahydro-5H-[1,2,4]triazolo[1,5-a]azepine-2,7-diamine] |
| 0.005 | COc1cc(Nc2nc3n(n2)CCCC[C@H]3c2ccc(OCC(F)(F)F)cc2)ccc1-n1cnc(Cl)c1 (single isomer, unassigned) [Example 106] |

same assay, conditions: 19 h, H4 APP751 SWE clone 8.20 cells, 19 h incubation; read-out: Activity Rating (based on Aβ42 cellular IC50 values)

| Molecule | IC50 [µM] |
| --- | --- |
| COc1cc(Nc2nc3n(n2)CC[C@@](C)(O)C[C@@H]3c2ccc(OC(F)(F)F)cc2)ccc1-n1cnc(Cl)c1 (relative stereo) [Example 153, rel-(7S,9R)-2-(4-(4-chloro-1H-imidazol-1-yl)-3-methoxyphenylamino)-7-methyl-9-(4-(trifluoromethoxy)phenyl)-6,7,8,9-tetrahydro-5H-[1,2,4]triazolo[1,5-a]azepin-7-ol 2,2,2-trifluoroacetate] | < 0.01 |
| COc1cc(Nc2nc3c(s2)CCC[C@H]3c2ccccc2)ccc1-n1cnc(Cl)c1 (single isomer, unassigned) [Example 69] | 0.01 to 0.1 |
| COc1cc(Nc2nc3n(n2)CCCC[C@H]3c2ccc(OC(F)(F)F)cc2)cc(F)c1-n1cnc(C)n1 (single isomer, unassigned) [Example 168] | 0.01 to 0.1 |
| COc1cc(Nc2nc3n(n2)CC=CCC3c2ccc(F)cc2)ccc1-n1cnc(C)n1 (stereo not shown) [Example 4, (Z)-9-(4-fluorophenyl)-N-(3-methoxy-4-(3-methyl-1H-1,2,4-triazol-1-yl)phenyl)-8,9-dihydro-5H-[1,2,4]triazolo[1,5-a]azepin-2-amine] | 0.01 to 0.1 |
| COc1cc(Nc2nc3n(n2)CCCCC3c2ccc(Cl)cc2)ccc1-c1cnn(C)c1 (stereo not shown) [Example 34, 9-(4-chlorophenyl)-N-(3-methoxy-4-(1-methyl-1H-pyrazol-4-yl)phenyl)-6,7,8,9-tetrahydro-5H-[1,2,4]triazolo[1,5-a]azepin-2-amine 2,2,2-trifluoroacetate] | 0.01 to 0.1 |
| Cc1ncn(-c2ccc(Nc3nc4n(n3)CCCC[C@@H]4c3ccc(F)cc3)cc2F)n1 (single isomer, unassigned) [Example 27] | 0.01 to 0.1 |
| COc1cc(Nc2nc3n(n2)CCCC[C@H]3c2ccc(Cl)cc2Cl)ccc1-n1cnc(Cl)c1 (single isomer, unassigned) [Example 20] | < 0.01 |
| COc1cc(Nc2nc3n(n2)CCCCC3n2cc(Cl)cn2)ccc1-n1cnc(Cl)c1 (stereo not shown) [Example 42, N-(4-(4-chloro-1H-imidazol-1-yl)-3-methoxyphenyl)-9-(4-chloro-1H-pyrazol-1-yl)-6,7,8,9-tetrahydro-5H-[1,2,4]triazolo[1,5-a]azepin-2-amine 2,2,2-trifluoroacetate] | 0.01 to 0.1 |
| COc1cc(Nc2nc3n(n2)CCCCC3c2ccc(OCC(F)(F)F)cc2)c(F)cc1-n1cnc(C)n1 (stereo not shown) [Example 116, N-(2-fluoro-5-methoxy-4-(3-methyl-1H-1,2,4-triazol-1-yl)phenyl)-9-(4-(2,2,2-trifluoroethoxy)phenyl)-6,7,8,9-tetrahydro-5H-[1,2,4]triazolo[1,5-a]azepin-2-amine] | 0.01 to 0.1 |
| COc1cc(Nc2nc3n(n2)CCCCC3c2ccc(OC(C)C)cc2)ccc1-n1cnc(Cl)c1 (stereo not shown) [Example 102, N-(4-(4-chloro-1H-imidazol-1-yl)-3-methoxyphenyl)-9-(4-isopropoxyphenyl)-6,7,8,9-tetrahydro-5H-[1,2,4]triazolo azepin-2-amine] | < 0.01 |
| Cc1ncn(-c2c(F)cc(Nc3nc4n(n3)CCCCC4c3ccc(OC(F)(F)F)cc3)cc2F)n1 (stereo not shown) [Example 108, N-(3,5-difluoro-4-(3-methyl-1H-1,2,4-triazol-1-yl)phenyl)-9-(4-(trifluoromethoxy)phenyl)-6,7,8,9-tetrahydro-5H-[1,2,4]triazolo[1,5-a]azepin-2-amine] | 0.01 to 0.1 |

The remaining lines, values ahead:

| IC50 [µM] | Molecule |
| --- | --- |
| 0.01 to 0.1 | Cc1ncn(-c2ccc(Nc3nc4n(n3)CCCC[C@H]4c3ccc(OC(F)(F)F)c(F)c3)cc2F)n1 (single isomer, unassigned) [Example 165] |
| 0.01 to 0.1 | COc1cc(Nc2nc3c(s2)CC2(CC3c3ccc(F)cc3)OCCO2)ccc1-n1cnc(Cl)c1 (stereo not shown) [Example 74, N-(4-(4-chloro-1H-imidazol-1-yl)-3-methoxyphenyl)-4-(4-fluorophenyl)-5,7-dihydro-4H-spiro[benzo[d]thiazole-6,2′-[1,3]dioxolan]-2-amine] |
| 0.1 to 1 | COc1cc(Nc2nc3n(n2)CCCCC3c2ccc(F)cc2)ccc1-c1cc(C)no1 (stereo not shown) [Example 61, 9-(4-fluorophenyl)-N-(3-methoxy-4-(3-methylisoxazol-5-yl)phenyl)-6,7,8,9-tetrahydro-5H-[1,2,4]triazolo[1,5-a]azepin-2-amine] |
| 0.01 to 0.1 | COc1cc(Nc2nc3c(s2)CCCC3c2ccccc2)ccc1-c1ccnc(C)c1 (stereo not shown) [Example 72, N-(3-methoxy-4-(2-methylpyridin-4-yl)phenyl)-4-phenyl-4,5,6,7-tetrahydrobenzo[d]thiazol-2-amine 2,2,2-trifluoroacetate] |
| < 0.01 | COc1cc(Nc2nc3n(n2)CCCCC3c2ccc(F)cc2)ccc1-n1cnc(Cl)c1 (stereo not shown) [Example 16, N-(4-(4-Chloro-1H-imidazol-1-yl)-3-methoxyphenyl)-9-(4-fluorophenyl)-6,7,8,9-tetrahydro-5H-[1,2,4]triazolo[1,5-a]azepin-2-amine] |
| < 0.01 | Cc1ncn(-c2ccc(Nc3nc4n(n3)CCCCC4c3ccc(OC(F)(F)F)c(F)c3)cc2F)n1 (stereo not shown) [Example 164, N-(3-fluoro-4-(3-methyl-1H-1,2,4-triazol-1-yl)phenyl)-9-(3-fluoro-4-(trifluoromethoxy)phenyl)-6,7,8,9-tetrahydro-5H-[1,2,4]triazolo[1,5-a]azepin-2-amine] |
| 0.01 to 0.1 | COc1cc(Nc2nc3n(n2)CC=CC[C@H]3c2ccc(F)cc2)ccc1-n1cnc(C)n1 (single isomer, unassigned) [Example 5] |
| 0.01 to 0.1 | COc1cc(Nc2nc3n(n2)CCCCC3c2ccc(OCC(F)(F)F)cc2)ccc1-n1cnc(Cl)c1 (stereo not shown) [Example 105, N-(4-(4-chloro-1H-imidazol-1-yl)-3-methoxyphenyl)-9-(4-(2,2,2-trifluoroethoxy)phenyl)-6,7,8,9-tetrahydro-5H-[1,2,4]triazolo[1,5-a]azepin-2-amine] |
| 0.01 to 0.1 | CNC1CCn2nc(Nc3ccc(-n4cnc(Cl)c4)c(OC)c3)nc2C(c2ccc(F)cc2)C1 (stereo not shown) [Example 140, N2-(4-(4-chloro-1H-imidazol-1-yl)-3-methoxyphenyl)-9-(4-fluorophenyl)-N-7-methyl-6,7,8,9-tetrahydro-5H-[1,2,4]triazolo[1,5-a]azepine-2,7-diamine 2,2,2-trifluoroacetate] |
| < 0.01 | COc1cc(Nc2nc3n(n2)CCCC[C@@H]3c2ccc(Cl)cc2Cl)ccc1-n1cnc(Cl)c1 (single isomer, unassigned) [Example 21] |
| 0.01 to 0.1 | Cc1ncnn1-c1ccc(Nc2nc3n(n2)CCCC[C@@H]3c2ccc(OCC(F)(F)F)cc2)cc1F (single isomer, unassigned) [Example 112] |
| 0.01 to 0.1 | COc1cc(Nc2nc3n(n2)CCCC3c2ccc(F)cc2)ccc1-n1cnc(Cl)c1 (stereo not shown) [Example 10, N-(4-(4-chloro-1H-imidazol-1-yl)-3-methoxyphenyl)-8-(4-fluorophenyl)-5,6,7,8-tetrahydro-[1,2,4]triazolo[1,5-a]pyridin-2-amine 2,2,2-trifluoroacetate] |
| 0.01 to 0.1 | Cc1ncnn1-c1ccc(Nc2nc3n(n2)CCCC[C@@H]3c2ccc(OC(F)(F)F)cc2)cc1F (single isomer, unassigned) [Example 101] |

same assay, conditions: H4 APP751 SWE clone 8.20 cells, 19 h incubation; read-out: Activity Rating (based on Aβ42 cellular IC50 values)

| Molecule | IC50 [µM] |
| --- | --- |
| S)—N-(4-(4-chloro-1H-imidazol-1-yl)-3-methoxyphenyl)-9-(3,4-difluorophenyl)-6,7,8,9-tetrahydro-5H-[1,2,4]triazolo[1,5-a]azepin-2-amine [Example 23] | < 0.01 |
| COc1cc(Nc2nc3n(n2)CCCC[C@@H]3c2ccc(OC(F)(F)F)cc2)ccc1-n1cnc(Cl)c1 (single isomer, unassigned) [Example 126] | 0.01 to 0.1 |
